Results from patent publication US10329304B2, “Compounds and methods for inhibition of hedgehog signaling and phosphodiesterase” (Vanderbilt University, priority 2014, dated 2019).

Tests used:
[1] = system: Hedgehog signaling (TM3-Gli-Luc); assay: TM3-Gli-Luc luciferase reporter assay stimulated with 20 nM SAG; format: cell-based; conditions: Table 9A; read-out: TM3 G8 Luciferase EC 50
In short: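 Luciferase read-out divided by CellTiter-Glo viability, minus DMSO/no-SAG baseline, expressed relative to 20 nM SAG alone. Cells exposed to compound with SAG for 48 h at 37 °C in 2.5% FBS DMEM/F12 on gelatin. EC50 ±SEM from at least two separate-day runs.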

zebrafish embryos = assay: Zebrafish embryo phenotypic assay (ZF); format: in vivo; conditions: wild-type embryonic zebrafish, dosed 5 hpf
Procedure: All zebrafish experiments were approved by Vanderbilt University Institutional Animal Care and Use Committee. Wild-type zebrafish of AB strain were maintained using standard protocols. Chemical screen for small molecules was performed as previously described. Briefly, pairs of zebrafish were mated, and fertilized eggs were arrayed in 96-well microtiter plates (5 embryos/well) containing 250 μl E3 water. At ˜4-hpf, small molecule library from Vanderbilt High Throughput Screening Facility was added to each well to the final concentration of 5 μM. Embryos were incubated at 28.5° C. until 24 and 48-hpf, when they were examined for gross morphologic changes indicative of disruption in embryonic patterning. A total of ˜30,000 compounds were screened.
ZF refers to wild-type embryonic zebrafish phenotypic assay involving dosing n=˜10 embryos in E3 egg water with compound from either a stock of 1 mM or 10 mM in DMSO at 5 hours post-fertilization and observing at 24, 48, and 72 hours post-fertilization.

Ptch1 transcription = assay: Sufu−/− mouse embryonic fibroblasts qRT-PCR; format: cell-based; conditions: Mus musculus, Fibroblast; read-out: Sufu Null (Ptc) % Inh., 10 μM
Text: In light of EGM1's ability to halt Hh transcriptional activity at a node downstream of the negative regulator Sufu, and thus also downstream of Smo, we sought to confirm mode of action retention with our most promising analogs. Therefore, we employed Sufu−/− mouse embryonic fibroblasts (MEF) that display constitutively active transcription of Hh target genes Gli1 and Ptch1 and monitored the ability of our optimized analogs to repress signaling via quantitative reverse transcription-PCR (qRT-PCR). […] We then evaluated improved analogs from multiple structural classes including those from Table 1 with cyclohexylthiophene cores as well as from Table 13 with structurally distinct core modifications.
Sufu^−/− cells were seeded into 12-well plates at a density of 100,000 cells/well in D10 FBS and incubated for 24 hours. Small molecule solutions were prepared by adding the desired amount of compound from 10 mM DMSO stock to D0.5 FBS. Negative control was prepared by adding an equi-volume amount of DMSO to D0.5 FBS as compared to small molecule treated conditions. Cell plating medium was aspirated and replaced with 1 mL of prepared small molecule-containing media, and plates were incubated for 24 hours before proceeding to RNA isolation.
Cells were washed 1× with 1× phosphate-buffered saline (PBS) then RNA was isolated using the Qiagen RNeasy Mini Kit (Qiagen, Germantown, Md., USA) according to the manufacturer's protocol, eluting RNA from the spin column with 30 μL of RNase-free water. RNA was placed on ice and immediately subjected to reverse transcription. Remaining RNA was stored at −80° C.
Reverse transcription polymerase chain reaction (RT-PCR) was performed with the Applied Biosystems High Capacity cDNA Reverse Transcription Kit (ThermoFisher Scientific, Waltham, Mass., USA) using an Eppendorf MasterCycler. Each 20 μL reaction contained 0.5 μg of total RNA, 2 μL of 10×RT Buffer, 0.8 μL of 25×dNTP Mix (100 mM), 2 μL of 10×RT Random Primers, 1 μL of MultiScribe® Reverse Transcriptase (50 U/μL), 1 μL of Recombinant RNasin® Ribonuclease Inhibitor (40 U/μL) (Promega, Madison, Wis., USA), and nuclease-free water. Reverse transcription was performed with the following program: 25° C. for 10 minutes, 37° C. for 120 minutes, and 85° C. for 5 minutes. The cDNA was subjected to quantitative real-time PCR (Q-PCR) or stored at −20° C.
Quantitative real-time PCR was performed on an Applied Biosystems 7900 HT Fast Real Time PCR System in 384-well format. Each cDNA sample was assayed in triplicate with both probe of interest and control probe. Master mixes for each probe were prepared corresponding to 10 μL of Applied Biosystems TaqMan Universal PCR Master Mix (ThermoFisher Scientific, Waltham, Mass., USA), 1 μL of primer, and nuclease-free water corresponding to a volume providing 20 μL reactions when loading an average of 50 ng of cDNA. Quantitative real-time PCR was run with the following thermal cycling protocol: 50° C. for 2 min., 95° C. for 10 min., and 40 cycles of 95° C. for 15 seconds, 60° C. for 1 min., then fluorescence reading. The following FAM probes were purchased from Life Technologies (Carlsbad, Calif., USA): mouse GAPDH, Mm99999915_g1; mouse Gli1, Mm00494646_g1; mouse Ptch1, Mm01306905_m1.
Quantitative real-time PCR data for Hh signaling inhibition was quantitated using the ΔΔCt method. Control probe values were subtracted from probe of interest values to arrive at the ΔCt value. The ΔCt value was transformed by 2-^ΔCt to arrive at the ΔΔCt value. All ΔΔCt values were divided by the average negative control ΔΔCt value to provide percent Hh signaling activity. Percent inhibition values were derived by calculating the inverse of percent activity. Data is reported as mean±standard error of the mean (SEM), representing at least two biological replicates, each quantitated in triplicate.

Gli1 mRNA = assay: Hh % Inh.: SAG-induced Gli1 expression in C3H10T½ cells (qPCR); format: cell-based; conditions: Mus musculus, C3H 10T1/2, SAG-induced (100 nM), 24 hours
Procedure: Compounds are dosed from 10 mM DMSO stock solutions, and mRNA is isolated after 24 hours of compound treatment. mRNA is reverse transcribed to produce cDNA which is quantified by quantitative polymerase chain reaction (qPCR) in triplicate and levels are normalized to GAPDH levels. Data is presented as percent inhibition compared to positive control (SAG).

Row | SMILES | EC50 [1] | ZF Phenotype EC100 (zebrafish embryos) | inhibition at 10 µM (Ptch1 transcription) | inhibition at 1 µM (Gli1 mRNA; 1 pM [sic], read-out: C3H10T1/2 qPCR, Gh1 mRNA % Inh., 1 pM) | inhibition at 10 µM (Gli1 mRNA; 10 pM [sic], read-out: C3H10T1/2 qPCR, Gh1 mRNA % Inh., 10 pM) | EC50 (Gli1 mRNA; read-out: C3H10T1/2 qPCR, Gh1 mRNA EC50)
1 | O=C(CSc1nc2sc3c(c2c(=O)n1C1CC1)CCCC3)c1ccccc1 [JEH-1-163-1] | 1960 nM | 0.81 µM | 41.9% | – | – | –
2 | C=C(C)Cn1c(SCC(=O)c2cccn2C)nc2sc3c(c2c1=O)CCCC3 [JEH-3-077] | – | – | 52.1% | 47.1% | 89.1% | 1130 nM
